According to patent publication US9249129B2, “Morpholino substituted urea derivatives as mTOR inhibitors” (CELLZOME LIMITED, priority 2010, dated 2016):

Key:
Assay in all cases: kinobeads assay with mass spectrometry detection of kinases (kinase selectivity profile)
Type in all cases: binding
kinases (kinome) [1] = target: T1, kinases (kinome) (Homo sapiens, UniProt Q14289); conditions: PYK2 (TK), IPI00029702
T1 construct: determined in kinobeads assays with mass spectrometry detection of kinases as described previously; endogenous in cells; host or cells: cell lysate
From the text: (§1) The protein kinase complement of the human genome (the kinome) was described previously (Manning et al., 2002. Science 298(5600):1912-1934). Sequence accession numbers are defined by the International Protein Index (IPI) (Kersey et al., 2004. Proteomics 4(7):1985-1988).

kinases (kinome) [2] = target: T2, kinases (kinome) (Homo sapiens, UniProt P45983); conditions: JNK1 (CMGC), IPI00220306
T2 construct: determined in kinobeads assays with mass spectrometry detection of kinases as described previously; endogenous in cells; host or cells: cell lysate
T2 sequence (P45983 whole entry): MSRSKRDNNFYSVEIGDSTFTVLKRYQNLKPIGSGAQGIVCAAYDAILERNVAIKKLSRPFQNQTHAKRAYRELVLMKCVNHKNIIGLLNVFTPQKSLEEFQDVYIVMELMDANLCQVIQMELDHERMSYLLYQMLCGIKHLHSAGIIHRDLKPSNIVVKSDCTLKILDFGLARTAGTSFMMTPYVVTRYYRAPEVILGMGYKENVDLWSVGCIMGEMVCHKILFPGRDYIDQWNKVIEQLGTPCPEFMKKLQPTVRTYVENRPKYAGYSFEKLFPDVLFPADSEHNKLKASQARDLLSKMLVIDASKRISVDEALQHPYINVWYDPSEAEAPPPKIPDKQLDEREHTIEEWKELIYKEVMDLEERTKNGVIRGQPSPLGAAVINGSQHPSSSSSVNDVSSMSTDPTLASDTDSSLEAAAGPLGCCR
From the text: as §1

kinases (kinome) [3] = target: T3, kinases (kinome) (Homo sapiens, UniProt O96013); conditions: PAK4 (STE), IPI00014068
T3 construct: determined in kinobeads assays with mass spectrometry detection of kinases as described previously; endogenous in cells; host or cells: cell lysate
T3 sequence (O96013 whole entry): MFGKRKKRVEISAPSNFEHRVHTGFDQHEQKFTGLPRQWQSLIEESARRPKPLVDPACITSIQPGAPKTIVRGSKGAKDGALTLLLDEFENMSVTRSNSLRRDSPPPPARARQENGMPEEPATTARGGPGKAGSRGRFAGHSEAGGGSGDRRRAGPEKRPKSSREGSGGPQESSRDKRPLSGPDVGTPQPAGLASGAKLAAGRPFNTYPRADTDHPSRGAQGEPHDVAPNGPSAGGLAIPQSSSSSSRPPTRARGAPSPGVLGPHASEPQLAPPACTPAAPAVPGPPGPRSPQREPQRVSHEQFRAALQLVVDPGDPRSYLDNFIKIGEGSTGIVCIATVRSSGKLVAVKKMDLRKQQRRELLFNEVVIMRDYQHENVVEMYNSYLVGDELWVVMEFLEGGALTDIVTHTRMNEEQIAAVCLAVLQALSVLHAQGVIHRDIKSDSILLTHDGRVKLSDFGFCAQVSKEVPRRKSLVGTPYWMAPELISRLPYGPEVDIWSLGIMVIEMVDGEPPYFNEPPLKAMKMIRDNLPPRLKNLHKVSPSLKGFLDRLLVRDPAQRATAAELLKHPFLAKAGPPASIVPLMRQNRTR
From the text: as §1

kinases (kinome) [4] = target: T4, kinases (kinome) (Homo sapiens, UniProt Q12851); conditions: GCK (STE), IPI00149094
T4 construct: determined in kinobeads assays with mass spectrometry detection of kinases as described previously; endogenous in cells; host or cells: cell lysate
T4 sequence (Q12851 1-820): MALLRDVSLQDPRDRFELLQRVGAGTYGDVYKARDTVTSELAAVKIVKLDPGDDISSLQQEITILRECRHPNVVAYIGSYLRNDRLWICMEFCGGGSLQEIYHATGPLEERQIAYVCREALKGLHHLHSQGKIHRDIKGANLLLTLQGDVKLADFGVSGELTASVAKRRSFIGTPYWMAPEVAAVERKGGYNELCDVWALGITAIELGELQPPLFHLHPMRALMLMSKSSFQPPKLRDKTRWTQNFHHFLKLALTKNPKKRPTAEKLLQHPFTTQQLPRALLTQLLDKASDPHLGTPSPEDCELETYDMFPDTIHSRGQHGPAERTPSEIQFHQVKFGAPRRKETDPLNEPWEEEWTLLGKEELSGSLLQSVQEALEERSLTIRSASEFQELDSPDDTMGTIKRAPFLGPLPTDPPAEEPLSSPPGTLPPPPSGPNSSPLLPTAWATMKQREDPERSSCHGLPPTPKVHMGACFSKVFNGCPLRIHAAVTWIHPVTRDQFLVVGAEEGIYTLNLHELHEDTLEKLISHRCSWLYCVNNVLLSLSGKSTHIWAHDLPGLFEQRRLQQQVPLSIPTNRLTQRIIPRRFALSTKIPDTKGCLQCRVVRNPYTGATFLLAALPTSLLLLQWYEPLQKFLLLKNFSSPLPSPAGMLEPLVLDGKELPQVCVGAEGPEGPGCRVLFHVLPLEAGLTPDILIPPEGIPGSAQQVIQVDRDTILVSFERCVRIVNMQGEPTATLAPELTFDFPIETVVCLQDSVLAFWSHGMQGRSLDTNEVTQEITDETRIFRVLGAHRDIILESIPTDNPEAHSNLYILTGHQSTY
From the text: as §1

kinases (kinome) [5] = target: T5, kinases (kinome) (Homo sapiens, UniProt Q9NSY1); conditions: BIKE (Other), IPI00337426
T5 construct: determined in kinobeads assays with mass spectrometry detection of kinases as described previously; endogenous in cells; host or cells: cell lysate
T5 sequence (Q9NSY1 whole entry): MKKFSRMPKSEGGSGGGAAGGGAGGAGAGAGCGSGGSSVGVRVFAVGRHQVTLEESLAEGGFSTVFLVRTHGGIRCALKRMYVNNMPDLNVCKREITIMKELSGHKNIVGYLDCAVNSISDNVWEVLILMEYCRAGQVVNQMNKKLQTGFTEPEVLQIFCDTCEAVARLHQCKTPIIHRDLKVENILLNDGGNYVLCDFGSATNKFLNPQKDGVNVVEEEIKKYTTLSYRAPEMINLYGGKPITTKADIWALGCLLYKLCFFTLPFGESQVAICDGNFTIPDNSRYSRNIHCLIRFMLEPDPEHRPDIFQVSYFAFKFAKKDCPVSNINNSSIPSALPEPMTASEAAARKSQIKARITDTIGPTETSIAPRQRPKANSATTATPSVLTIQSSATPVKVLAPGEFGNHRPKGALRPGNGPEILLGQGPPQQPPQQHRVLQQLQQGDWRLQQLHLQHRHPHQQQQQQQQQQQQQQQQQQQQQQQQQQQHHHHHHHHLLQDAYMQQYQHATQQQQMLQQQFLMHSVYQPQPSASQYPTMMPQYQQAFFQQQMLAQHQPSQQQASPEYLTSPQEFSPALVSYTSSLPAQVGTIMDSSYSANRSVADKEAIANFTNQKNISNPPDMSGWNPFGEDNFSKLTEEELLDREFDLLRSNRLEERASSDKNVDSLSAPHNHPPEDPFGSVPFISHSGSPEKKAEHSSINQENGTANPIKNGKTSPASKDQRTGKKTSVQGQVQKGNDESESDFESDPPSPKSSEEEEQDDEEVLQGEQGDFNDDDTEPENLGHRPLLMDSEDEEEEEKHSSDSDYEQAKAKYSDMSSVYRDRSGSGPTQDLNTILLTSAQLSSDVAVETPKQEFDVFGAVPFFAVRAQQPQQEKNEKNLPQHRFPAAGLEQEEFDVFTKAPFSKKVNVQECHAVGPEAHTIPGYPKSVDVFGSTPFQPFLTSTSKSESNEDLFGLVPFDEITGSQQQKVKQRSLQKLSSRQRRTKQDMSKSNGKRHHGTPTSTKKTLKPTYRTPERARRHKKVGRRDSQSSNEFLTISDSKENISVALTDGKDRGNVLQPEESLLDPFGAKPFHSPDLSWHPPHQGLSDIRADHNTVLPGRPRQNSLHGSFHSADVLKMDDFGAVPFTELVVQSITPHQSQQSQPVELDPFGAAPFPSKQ
From the text: as §1

kinases (kinome) [6] = target: T6, kinases (kinome) (Homo sapiens, UniProt Q9NYL2); conditions: ZAK (TKL), IPI00329638
T6 construct: determined in kinobeads assays with mass spectrometry detection of kinases as described previously; endogenous in cells; host or cells: cell lysate
T6 sequence (Q9NYL2 whole entry): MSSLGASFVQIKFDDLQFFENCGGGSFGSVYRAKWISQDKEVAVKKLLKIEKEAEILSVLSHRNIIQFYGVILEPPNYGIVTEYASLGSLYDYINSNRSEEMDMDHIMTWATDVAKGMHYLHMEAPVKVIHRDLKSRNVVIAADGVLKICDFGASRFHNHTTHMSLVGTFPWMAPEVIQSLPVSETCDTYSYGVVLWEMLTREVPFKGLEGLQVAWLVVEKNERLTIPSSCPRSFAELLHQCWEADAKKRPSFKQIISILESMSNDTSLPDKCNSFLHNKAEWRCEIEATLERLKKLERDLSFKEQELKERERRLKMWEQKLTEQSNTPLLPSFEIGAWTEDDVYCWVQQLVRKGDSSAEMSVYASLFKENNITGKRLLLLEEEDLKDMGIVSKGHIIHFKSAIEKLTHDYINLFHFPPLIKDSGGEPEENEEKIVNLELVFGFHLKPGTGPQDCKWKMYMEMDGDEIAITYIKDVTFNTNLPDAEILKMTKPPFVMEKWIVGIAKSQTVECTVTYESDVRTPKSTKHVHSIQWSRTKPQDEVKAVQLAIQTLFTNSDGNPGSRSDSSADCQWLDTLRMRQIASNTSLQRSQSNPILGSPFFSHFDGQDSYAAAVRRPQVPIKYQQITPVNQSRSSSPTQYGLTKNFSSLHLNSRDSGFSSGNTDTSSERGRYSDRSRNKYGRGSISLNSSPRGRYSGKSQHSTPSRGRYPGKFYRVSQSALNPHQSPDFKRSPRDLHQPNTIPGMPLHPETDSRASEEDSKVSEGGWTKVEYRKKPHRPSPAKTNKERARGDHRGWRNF
From the text: as §1

kinases (kinome) [7] = target: T7, kinases (kinome) (Homo sapiens, UniProt P27361); conditions: Erk1 (CMGC), IPI00018195
T7 construct: determined in kinobeads assays with mass spectrometry detection of kinases as described previously; endogenous in cells; host or cells: cell lysate
T7 sequence (P27361 whole entry): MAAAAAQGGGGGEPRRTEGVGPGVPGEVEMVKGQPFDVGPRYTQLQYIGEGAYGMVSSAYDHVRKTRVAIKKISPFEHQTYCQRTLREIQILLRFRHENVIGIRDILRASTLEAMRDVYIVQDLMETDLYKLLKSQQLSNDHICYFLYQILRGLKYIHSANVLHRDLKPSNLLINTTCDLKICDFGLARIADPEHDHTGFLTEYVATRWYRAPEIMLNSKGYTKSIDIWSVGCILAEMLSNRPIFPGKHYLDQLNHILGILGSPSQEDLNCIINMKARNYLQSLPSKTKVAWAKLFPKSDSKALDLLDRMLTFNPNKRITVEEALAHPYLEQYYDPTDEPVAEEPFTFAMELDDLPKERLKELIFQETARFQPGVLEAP
From the text: as §1

kinases (kinome) [8] = target: T8, kinases (kinome) (Homo sapiens, UniProt Q13043); conditions: MST1 (STE), IPI00011488
T8 construct: determined in kinobeads assays with mass spectrometry detection of kinases as described previously; endogenous in cells; host or cells: cell lysate
T8 sequence (Q13043 1-487): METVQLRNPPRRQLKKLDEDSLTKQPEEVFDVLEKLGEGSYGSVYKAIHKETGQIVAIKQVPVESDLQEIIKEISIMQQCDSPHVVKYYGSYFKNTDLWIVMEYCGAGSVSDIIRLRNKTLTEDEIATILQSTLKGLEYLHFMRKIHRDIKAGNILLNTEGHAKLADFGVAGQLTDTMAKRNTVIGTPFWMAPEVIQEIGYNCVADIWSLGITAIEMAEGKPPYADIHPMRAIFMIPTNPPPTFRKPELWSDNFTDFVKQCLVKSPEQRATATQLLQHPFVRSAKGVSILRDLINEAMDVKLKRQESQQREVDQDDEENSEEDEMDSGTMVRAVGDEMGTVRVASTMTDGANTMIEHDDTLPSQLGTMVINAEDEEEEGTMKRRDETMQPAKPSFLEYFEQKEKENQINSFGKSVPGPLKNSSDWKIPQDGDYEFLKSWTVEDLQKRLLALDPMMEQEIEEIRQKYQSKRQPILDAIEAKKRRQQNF
From the text: as §1

kinases (kinome) [9] = target: T9, kinases (kinome) (Homo sapiens, UniProt P16591); conditions: FER (TK), IPI00029263
T9 construct: determined in kinobeads assays with mass spectrometry detection of kinases as described previously; endogenous in cells; host or cells: cell lysate
T9 sequence (P16591 whole entry): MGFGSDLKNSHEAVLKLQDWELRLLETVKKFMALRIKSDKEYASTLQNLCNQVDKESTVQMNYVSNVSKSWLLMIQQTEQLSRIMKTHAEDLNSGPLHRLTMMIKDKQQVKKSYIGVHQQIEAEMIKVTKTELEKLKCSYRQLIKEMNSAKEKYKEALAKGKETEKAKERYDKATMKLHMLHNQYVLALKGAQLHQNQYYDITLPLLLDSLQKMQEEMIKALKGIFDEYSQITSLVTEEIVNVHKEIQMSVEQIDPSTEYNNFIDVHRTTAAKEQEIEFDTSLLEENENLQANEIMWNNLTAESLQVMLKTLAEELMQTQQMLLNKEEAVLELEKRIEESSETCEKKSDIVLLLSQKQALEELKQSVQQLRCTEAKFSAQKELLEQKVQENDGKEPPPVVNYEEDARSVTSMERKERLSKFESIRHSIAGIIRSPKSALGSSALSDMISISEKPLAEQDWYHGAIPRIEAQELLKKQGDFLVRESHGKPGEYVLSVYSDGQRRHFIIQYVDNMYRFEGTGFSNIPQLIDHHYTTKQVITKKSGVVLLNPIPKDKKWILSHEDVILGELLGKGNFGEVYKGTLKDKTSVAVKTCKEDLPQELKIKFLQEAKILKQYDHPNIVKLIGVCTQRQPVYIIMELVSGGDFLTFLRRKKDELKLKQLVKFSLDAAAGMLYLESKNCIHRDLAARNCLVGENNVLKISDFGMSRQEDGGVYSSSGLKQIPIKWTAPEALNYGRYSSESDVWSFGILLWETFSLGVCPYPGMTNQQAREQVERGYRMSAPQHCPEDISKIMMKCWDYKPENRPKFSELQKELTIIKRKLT
From the text: as §1

kinases (kinome) [10] = target: T10, kinases (kinome) (Homo sapiens, UniProt Q9BVS4); conditions: RIOK2 (Atypical), IPI00306406
T10 construct: determined in kinobeads assays with mass spectrometry detection of kinases as described previously; endogenous in cells; host or cells: cell lysate
From the text: as §1

kinases (kinome) [11] = target: T11, kinases (kinome) (Homo sapiens, UniProt P42336); conditions: PIK3Ca (Lipid Kinase), IPI00031386
T11 construct: determined in kinobeads assays with mass spectrometry detection of kinases as described previously; endogenous in cells; host or cells: cell lysate
From the text: as §1

kinases (kinome) [12] = target: T12, kinases (kinome) (Homo sapiens, UniProt Q96GD4); conditions: AurB (Other), IPI00796914
T12 construct: determined in kinobeads assays with mass spectrometry detection of kinases as described previously; endogenous in cells; host or cells: cell lysate
T12 sequence (Q96GD4 whole entry): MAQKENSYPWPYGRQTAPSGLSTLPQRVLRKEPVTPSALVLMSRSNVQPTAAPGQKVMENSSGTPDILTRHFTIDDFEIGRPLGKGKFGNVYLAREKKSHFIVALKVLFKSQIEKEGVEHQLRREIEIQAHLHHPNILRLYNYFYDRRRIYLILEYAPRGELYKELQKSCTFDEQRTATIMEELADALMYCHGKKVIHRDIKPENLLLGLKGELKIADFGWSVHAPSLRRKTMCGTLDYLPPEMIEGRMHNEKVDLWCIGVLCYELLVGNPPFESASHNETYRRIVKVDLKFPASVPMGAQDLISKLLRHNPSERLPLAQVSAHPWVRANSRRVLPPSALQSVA
From the text: as §1

kinases (kinome) [13] = target: T13, kinases (kinome) (Homo sapiens, UniProt P51451); conditions: BLK (TK), IPI00554756
T13 construct: determined in kinobeads assays with mass spectrometry detection of kinases as described previously; endogenous in cells; host or cells: cell lysate
T13 sequence (P51451 whole entry): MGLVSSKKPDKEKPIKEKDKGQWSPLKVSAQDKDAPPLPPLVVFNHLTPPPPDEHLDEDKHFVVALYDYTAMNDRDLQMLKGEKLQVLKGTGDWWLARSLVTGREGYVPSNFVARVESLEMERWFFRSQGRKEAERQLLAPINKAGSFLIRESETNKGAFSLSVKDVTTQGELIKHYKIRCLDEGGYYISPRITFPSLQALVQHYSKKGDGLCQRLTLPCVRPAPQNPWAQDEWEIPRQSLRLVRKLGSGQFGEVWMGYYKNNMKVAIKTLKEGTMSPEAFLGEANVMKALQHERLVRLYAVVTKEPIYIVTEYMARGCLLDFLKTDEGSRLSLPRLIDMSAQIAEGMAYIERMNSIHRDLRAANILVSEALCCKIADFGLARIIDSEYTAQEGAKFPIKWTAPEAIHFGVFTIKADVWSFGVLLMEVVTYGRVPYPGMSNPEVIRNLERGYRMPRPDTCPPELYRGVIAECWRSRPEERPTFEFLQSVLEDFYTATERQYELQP
From the text: as §1

kinases (kinome) [14] = target: T14, kinases (kinome) (Homo sapiens, UniProt P36896); conditions: ALK4 (TKL), IPI00005732
T14 construct: determined in kinobeads assays with mass spectrometry detection of kinases as described previously; endogenous in cells; host or cells: cell lysate
T14 sequence (P36896 24-505): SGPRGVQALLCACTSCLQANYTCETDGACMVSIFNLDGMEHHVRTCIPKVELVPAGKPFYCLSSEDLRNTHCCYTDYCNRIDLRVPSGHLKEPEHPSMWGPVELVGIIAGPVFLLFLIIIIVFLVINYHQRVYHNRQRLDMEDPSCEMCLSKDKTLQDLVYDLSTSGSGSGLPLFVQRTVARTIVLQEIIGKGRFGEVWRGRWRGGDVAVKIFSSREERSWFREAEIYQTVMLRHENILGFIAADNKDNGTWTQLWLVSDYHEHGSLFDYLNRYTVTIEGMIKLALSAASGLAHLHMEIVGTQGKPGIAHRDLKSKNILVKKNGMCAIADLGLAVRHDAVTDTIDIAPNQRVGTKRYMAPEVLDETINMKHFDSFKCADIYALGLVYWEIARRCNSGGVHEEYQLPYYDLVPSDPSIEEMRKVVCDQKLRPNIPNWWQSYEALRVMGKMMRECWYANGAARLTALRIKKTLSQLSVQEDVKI
From the text: as §1

Measured: IC50

C[C@H]1COCCN1c1nc(-c2ccc(NC(=O)NC3CC3)cc2)cc(-c2ccccc2S(C)(=O)=O)n1 [Example 4, (S)-1-cyclopropyl-3-(4-(2-(3-methylmorpholino)-6-(2-(methylsulfonyl)phenyl)pyrimidin-4-yl)phenyl)urea]
> 10 µM: all assays above

C[C@H]1COCCN1c1cc(-c2ccccc2S(C)(=O)=O)nc(-c2ccc(NC(=O)NC3CC3)cc2)n1 [Example 6, (S)-1-cyclopropyl-3-(4-(4-(3-methylmorpholino)-6-(2-(methylsulfonyl)phenyl)pyrimidin-2-yl)phenyl)urea]
> 10 µM: all assays above

CCNC(=O)Nc1ccc(-c2cc(-c3ccccc3C#N)nc(N3CCOC[C@@H]3C)n2)cc1 [Example 8, (S)-1-(4-(6-(2-cyanophenyl)-2-(3-methylmorpholino)pyrimidin-4-yl)phenyl)-3-ethylurea]
> 10 µM: all assays above

C[C@H]1COCCN1c1nc(-c2ccc(NC(=O)NC3CC3)cc2)cc(-c2cc(F)ccc2S(C)(=O)=O)n1 [Example 40, (S)-1-cyclopropyl-3-(4-(6-(5-fluoro-2-(methylsulfonyl)phenyl)-2-(3-methylmorpholino)pyrimidin-4-yl)phenyl)urea]
> 10 µM: all assays above

C[C@H]1COCCN1c1cc(-c2ccccn2)nc(-c2ccc(NC(=O)NCCO)cc2)n1 [Example 43, (S)-1-(2-hydroxyethyl)-3-(4-(4-(3-methylmorpholino)-6-(pyridin-2-yl)pyrimidin-2-yl)phenyl)urea]
not listed: kinases (kinome) [14]
> 10 µM: all other assays above

C[C@H]1COCCN1c1nc(-c2ccc(NC(=O)NC3CC3)cc2)cc(-c2cccnc2S(C)(=O)=O)n1 [Example 46, (S)-1-cyclopropyl-3-(4-(2-(3-methylmorpholino)-6-(2-(methylsulfonyl)pyridin-3-yl)pyrimidin-4-yl)phenyl)urea]
> 10 µM: all assays above

C[C@H]1COCCN1c1nc(-c2ccc(NC(=O)N[C@H]3CCC[C@@H]3O)cc2)cc(-c2cc(F)ccc2S(C)(=O)=O)n1 [Example 76, 1-(4-(6-(5-fluoro-2-(methylsulfonyl)phenyl)-2-((S)-3-methylmorpholino)pyrimidin-4-yl)phenyl)-3-((1S,2S)-2-hydroxycyclopentyl)urea]
> 10 µM: all assays above
